{"source": "patent US4300557A", "about": "“Method for treating intraocular malignancies” (The United States of America as represented by the …, priority 1980, dated 1981)", "key": {"[1]": {"settings": "cited from earlier work"}, "Brown-Pearce epithelioma": {"tested_on": "Brown-Pearce epithelioma", "assay": "Histopathological observations of enucleated rabbit eyes with Brown-Pearce epithelioma", "assay_type": "in vivo, New Zealand female albino rabbits", "text": "Preoperative examination of 28 eyes in 14 New Zealand femal albino rabbits weighing 2.0 to 2.5 kg included biomicroscopy, tonotometry, and indirect ophthalmoscopy. All animals had normal eyes. Both eyes of each animal were inoculated intracamerally with Brown-Pearce epithelioma tissue by the technique at 993 of Liu et al., Invest. Ophthalmol Visual Sci., Vol. 17 (1978).\nThree days after tumor tissue implantation, a silicone device described in Example 1 was implanted episclerally in each eye. Animals were anesthetized with sodium pentobarbital 24 mg/kg body weight administered intravenously. After routine preparation of the rabbit and the eyes, a pocket beneath the conjunctiva and Tenon's capsule was made in the upper temporal quadrant of the eye. The silicone device was inserted into the pocket but the small tube remained accessible to permit injection of test substance. Two 7-0 silk sutures were applied on both shoulders of the silicone device and on the episcleral tissue at the pars plana to hold the device in position. The conjunctiva was closed with two 7-0 silk sutures. Then 0.15 ml of the BCNU solution or the diluent (control) was injected into the device with a tuberculin syringe and a 30-gauge needle through the tube which was outside the closed conjunctiva as shown in FIG. 5. The injecting tube was fixed on the upper fornix.\nSeven animals (Group 1A) received 3.0 mg of BCNU in 0.15 ml of sesame oil in one eye on the third, sixth, and ninth days after tumor implantation (total dose 9.0 mg). Three animals (Group 1B) received 12.0 mg of BCNU in 0.15 ml of sesame oil on the same schedule (total dose 36.0/mg). Four animals (Group II) received 13.0 mg of BCNU in pure ethanol on the third and sixth days after tumor implantation (total dose 26.0 mg). The fellow eyes served as controls and received diluent only.\nOcular examinations were made on alternate days during the 20 days following tumor implantation; at that time all eyes were enucleated. The effectiveness of treatment was measured by (1) comparing the extent of tumor growth in the anterior chamber of treated and control eyes, (2) noting the occurrence of distortion and perforation of the globe due to tumor growth, (3) weighing all eyes following enucleation, and (4) comparing the histopathologic changes in the eyes.\nThe enucleated eyes were fixed in 10% buffered formalin in preparation for histopathological examination. A sagittal section on either side of the optic nerve was made. Pupil-optic nerve sections and the two calottes were processed routinely for histologic evaluation, using hematoxyline and eosin (H&E) stain. The eyes were imbedded in paraffin and cut in sections 6μ thick for light microscopy. Every fifth section was stained. About 50 sections from each eye were examined."}, "[2]": {"assay": "Stability of BCNU in aqueous solution (absorbance at 232 nm)", "assay_type": "physicochemical", "text": "The decomposition of BCNU in water and in 1% aqueous ethanol was followed by measuring the characteristic BCNU absorbance maximum at 232 nm, using a Beckman DK-2A spectrophotometer. A second maximum that appeared at 190 nm and increased during decomposition was not a reliable indicator of the drug's breakdown."}, "E. coli": {"tested_on": "E. coli", "assay": "Microbiological assay of BCNU: inhibition of E. coli in agar plates", "assay_type": "cell-based", "description": "BCNU activity was evaluated by placing a silicone balloon containing BCNU in 0.2 ml of ethanol in a gelled agar plate seeded with E. coli (10^6 colonies/ml). The balloon was covered with a layer of seeded agar. The culture was incubated overnight at 35° C. and the zone of inhibition was measured. The balloons were transferred daily to new plates and the procedure repeated as long as activity was detected. The diameters of the zones of inhibition were compared with a standard semilogarythmic plot obtained using known amount of BCNU absorbed in filter paper about the size of the balloons. […] In control experiments with balloons filled with 0.2 ml of ethanol no inhibition of E. coli was observed. After a single overnight incubation, all of the alcohol had diffused from the balloon.\nThe smaller zone was very clear, and probably totally free of bacterial growth. The larger one was distinct, but had some diffuse bacterial growth. […] The microbiological assay is a useful test of cytotoxic activity of the implants, but the results are only semiquantitative, owing to simultaneous decomposition and diffusion of BCNU.\nA 10 mg sample of solid was placed in a 7-mm-diameter reservoir made of two silicone membranes (0.1 mm thick) separated by a silicone rubber ring spacer (1.0 mm wide×1.5 mm thick) and glued with silicone adhesive. The sandwich-type silicone device containing 10 mg of solid BCNU was imbedded in agar plates seeded with E. coli and incubated repeatedly as in Example 5(a)."}, "[3]": {"settings": "ethanol in silicone rubber capsule, Schmidt et al.; cited from earlier work"}}, "note": "Like-named read-outs stand apart in the source and are kept apart here.", "data": [{"smiles": "O=NN(CCCl)C(=O)NCCCl", "note": "[BCNU, 1,3-bis-(2-chloroethyl)-1-nitrosourea]", "values": [{"measurement": "degradation in aqueous media", "setting": "[1]", "value": "degrades rapidly in aqueous media"}, {"measurement": "infiltration and extrascleral extension, histology", "setting": "Brown-Pearce epithelioma; Group I, BCNU in sesame oil", "value": "The inner scleral and corneal lamellae were infiltrated with tumor; no extrascleral extension was noted"}, {"measurement": "mitotic index", "setting": "Brown-Pearce epithelioma; Group I, BCNU in sesame oil", "value": "remained high"}, {"measurement": "necrosis", "setting": "Brown-Pearce epithelioma; Group I, BCNU in sesame oil", "value": "necrosis was prominent"}, {"measurement": "tumor extent, histology", "setting": "Brown-Pearce epithelioma; Group I, BCNU in sesame oil", "value": "Tumor growth tended to be limited to the anterior segment, but in some instances replaced the iris and ciliary body"}, {"measurement": "intraocular architecture and invasion of the cornea or sclera", "setting": "Brown-Pearce epithelioma; Group II, BCNU in pure ethanol", "value": "Normal intraocular architecture was maintained, with no evidence of invasion of the cornea or sclera"}, {"measurement": "mitotic index", "setting": "Brown-Pearce epithelioma; Group II, BCNU in pure ethanol", "value": "6 to 8", "unit": "per high power field"}, {"measurement": "necrosis versus control eyes", "setting": "Brown-Pearce epithelioma; Group II, BCNU in pure ethanol", "value": "less prominent than in control eyes"}, {"measurement": "reduction of tumor growth, histology", "setting": "Brown-Pearce epithelioma; Group II, BCNU in pure ethanol", "value": "most significant reduction of tumor growth"}, {"measurement": "tumor extent, histology", "setting": "Brown-Pearce epithelioma; Group II, BCNU in pure ethanol", "value": "Only small foci of tumor, limited to the anterior segment"}, {"measurement": "tumor nodules in iris and ciliary body, histology", "setting": "Brown-Pearce epithelioma; Group II, BCNU in pure ethanol", "value": "small nodules of tumor were found in the iris stroma and iris root with occasional involvement of the ciliary body"}, {"measurement": "histological difference between Group IA and Group IB eyes", "setting": "Brown-Pearce epithelioma; total 9.0 mg versus total 36.0 mg BCNU in sesame oil", "value": "no observable difference histologically"}, {"measurement": "half-life", "setting": "[2]; 1% ethanol, 1% ethanol solution, of the order of, read-out: Decomposition of BCNU in 1% ethanol solution", "value": "~4.1", "unit": "h"}, {"measurement": "half-life", "setting": "[2]; 1% ethanol, 37° C., read-out: half-life of BCNU in 1% ethanol", "value": 4.1, "unit": "h"}, {"measurement": "half-life", "setting": "[2]; water, 37° C., read-out: half-life of BCNU in water", "value": 3.83, "unit": "h"}, {"measurement": "depletion of drug activity, solid BCNU in sandwich-type silicone device", "setting": "E. coli; 10 mg solid BCNU versus 10 mg BCNU in 0.2 ml ethanol in balloon", "value": "depletion of drug activity similar to that obtained with 10 mg BCNU in 0.2 ml ethanol in a silicone balloon"}, {"measurement": "activity in the seventh incubation", "setting": "E. coli; 30 and 40 mg BCNU in 0.2 ml ethanol", "value": "zero activity"}, {"measurement": "activity in consecutive incubations", "setting": "E. coli; 30 and 40 mg BCNU in 0.2 ml ethanol, daily incubations at 35° C.", "value": "comparable activity for six consecutive incubations"}, {"measurement": "duration of inhibition of growth of E. coli cultures", "setting": "E. coli; 30 or 40 mg BCNU in ethanol, silicone microballoons", "value": 6, "unit": "days"}, {"measurement": "zones of inhibition", "setting": "E. coli; BCNU in 0.2 ml ethanol, balloons, overnight 35° C.", "value": "two concentric and distinct zones of inhibition"}, {"measurement": "BCNU remaining inside balloons after first incubation in agar", "setting": "E. coli; BCNU in ethanol", "value": "essentially pure BCNU remains inside the balloons"}, {"measurement": "BCNU content of balloons after first night's incubation", "setting": "E. coli; BCNU in ethanol, after first overnight incubation", "value": "~100", "unit": "%"}, {"measurement": "inhibitory activity versus filter paper impregnated with known amounts of BCNU", "setting": "E. coli; ethanolic solutions in silicone microballoons", "value": "unimpaired"}, {"measurement": "decrease in BCNU concentration in the dialysate", "setting": "[3]", "value": "rapid decrease in BCNU concentration in the dialysate"}]}]}
